IC50 and inhibition data for eight compounds are collected here from ChEMBL document CHEMBL2321817, “Detecting allosteric sites of HIV-1 reverse transcriptase by X-ray crystallographic fragment screening” (J Med Chem, 2013).

Molecules are shown by their SMILES. Active and inactive are the calls of the source. No cut-off for these calls is given here.

Assay [1] deals with T1, Human immunodeficiency virus type 1 reverse transcriptase (Human immunodeficiency virus 1, UniProt Q72547). Put plainly: Inhibition of wild type HIV-1 reverse transcriptase p66/p51 NNRTI adjacent binding site after 30 mins by fluorescence assay.
In assay [2] the target is Human immunodeficiency virus type 1 reverse transcriptase (Human immunodeficiency virus 1) (UniProt Q72547). As to the kind of experiment: Inhibition of wild type HIV-1 reverse transcriptase RNase H primer grip adjacent site after 30 mins by fluorescence assay.
The target of assay [3] is T1, Human immunodeficiency virus type 1 reverse transcriptase. Put plainly: Inhibition of wild type HIV-1 reverse transcriptase incoming nucleotide binding site after 30 mins by fluorescence assay.
Assay [4] addresses Human immunodeficiency virus type 1 reverse transcriptase (Human immunodeficiency virus 1) (UniProt Q72547). Put plainly: Inhibition of wild type HIV-1 reverse transcriptase p66/p51 399 site after 30 mins by fluorescence assay.
The target in assay [5] is T1, Human immunodeficiency virus type 1 reverse transcriptase. As to the kind of experiment: Inhibition of wild type HIV-1 reverse transcriptase 507 site incubated after 30 mins by fluorescence assay.
For assay [6] the target is unchanged. Put plainly: Inhibition of wild type HIV-1 reverse transcriptase knuckles site after 30 mins by fluorescence assay.
Assay [7] addresses Human immunodeficiency virus type 1 reverse transcriptase (Human immunodeficiency virus 1) (UniProt Q72547). Put plainly: Inhibition of wild type HIV-1 reverse transcriptase 428 site at 1 mM after 30 mins by fluorescence assay relative to control.
For assay [8] the target is unchanged. As to the kind of experiment: Inhibition of wild type HIV-1 reverse transcriptase knuckles site at 1 mM after 30 mins by fluorescence assay.

With `CCOC(=O)c1cnn2ccccc12`, in assay [1], the IC50 (commonly the concentration needed to halve the response being measured) turned out to be 350 µM.
Turning to `Cn1ncc(C(=O)O)c1-c1ccccc1`, in assay [2], the inhibition (commonly the percentage by which the read-out fell short of the control) is “inactive”.
As for `CN1CCN(c2ccc(C(=O)O)cc2)CC1`, the IC50 in assay [3] was determined as 200 µM.
On to `Cc1c(CO)cnn1-c1ccc(F)cc1`, for which, in assay [4], the inhibition entry is “inactive”.
In the case of `CN(CC(=O)N1CCCc2ccccc21)Cc1nc(=O)c2ccccc2[nH]1`, the IC50 in assay [5] stood at 150 µM.
In assay [6], `Oc1ccc(OC(F)(F)F)cc1` displayed a half-inhibitory concentration (IC50) of 600 µM.
Compound `NCC(=O)Nc1ccc2[nH]c(=O)[nH]c2c1` had an inhibition in assay [7] of 30%.
For `NCc1ccc(OC(F)(F)F)cc1`, the inhibition result in assay [8] was “inactive”.
